Tests used:
[1] = Inhibiting effect of free radicals: absorbance at 516 nm in the presence of radical diphenyl picryl hydrazide (XI); assay type: biochemical; conditions: ethanolic solution, 200 micromoles per liter compound, 100 micromoles per liter radical (XI), stirred 30 minutes at 20° C., 1-cm vessel
Method: The antioxidant potential in solution of the compounds (I) is evaluated by measuring their reaction with the free radical diphenyl-picryl-hydrazide (XI) per C. T. Ho, S. Agric. Food Chem. 1999, p. 3975, using methyl gallate as a reference (XII).
The inhibiting effect of free radicals claimed for compounds (Ia) and (Ib) obtained in a pure state was evaluated by measuring their absorbance in UV spectrophotometry at 516 nanometers in the presence of radical diphenyl picryl hydrazide (XI).
We prepared ethanolic solutions containing 200 micromoles per liter of the compound to be tested and 100 micromoles per liter of radical (XI), stirred for 30 minutes at 20° C. and placed in a 1-cm long vessel, and we measured the absorbances.

[2] = Assay of the free radical scavenging activity: addition of radical (XI) solution until purple color, absorbance at 516 nm; assay type: biochemical
From the text: b) Assay of the free radical scavenging activity of amides (Ia) and (Ib):
Under absorbance measurement conditions of 516 nanometers, we placed 2 micromoles of reference or substrate (Ia) and (Ib) under the UV cell.
We introduced a solution of 200 micromoles of radical (XI) until the purple color characteristic of the radical and measured the absorbance of the medium: […]

SMILES: COC(=O)c1cc(O)c(O)c(O)c1 [Methyl gallate, methyl gallate]
- Absorbance at 516 nm [1]: 0.06
- (XI) consumed ([2]; 2 micromoles of reference or substrate, solution of 200 micromoles of radical (XI) introduced until purple color): 27.7 mL
- Absorbance at 516 nm ([2]; absorbance of the medium after addition of radical (XI) until purple color, 2 micromoles of substrate): 0.34

— patent publication US8207229B1, “Preparation of hydroquinone amide compounds with antioxidant properties” (Catalys SAS, priority 2008, dated 2012)
